# Laboratory results published in ChEMBL document CHEMBL4385643, “Design of a brain-penetrant CDK4/6 inhibitor for glioblastoma” (Bioorg Med Chem Lett, 2019).
# Tests used:
# [1] = target: Bone morphogenetic protein receptor type-1A (Homo sapiens) (UniProt P36894); assay: Inhibition of tracer 178 binding to recombinant human GST-tagged BMPR1A catalytic domain (187 to 532 amino acids) expressed insect cell expression system at 0.1 uM measured after 60 mins by Lanthascreen assay relative to control
# [2] = target: Tyrosine-protein kinase BTK (Homo sapiens) (UniProt Q06187); assay: Inhibition of recombinant full length human His-tagged BTK expressed in baculovirus expression system at 0.1 uM using tyrosine-1 peptide as substrate incubated for 60 mins by Z'-LYTE assay relative to control
# [3] = target: Cyclin-Y/Cyclin-dependent kinase 16 (Homo sapiens) (UniProt Q00536+Q8ND76); assay: Inhibition of tracer 236 binding to recombinant human GST-tagged CDK16/cyclin Y catalytic domain (CDK16: 108 to end, Cyclin Y: 2 to end) expressed by baculovirus in Sf9 insect cells expression system at 0.1 uM measured after 60 mins by Lanthascreen assay relative to control
# [4] = target: Serine/threonine-protein kinase Chk2 (Homo sapiens) (UniProt O96017); assay: Inhibition of recombinant full length human His-tagged CHK2 expressed in baculovirus expression system at 0.1 uM using serine/threonine-07 peptide as substrate incubated for 60 mins by Z'-LYTE assay relative to control
# Serine/threonine-protein kinase Chk2 (Homo sapiens), sequence (O96017 whole entry): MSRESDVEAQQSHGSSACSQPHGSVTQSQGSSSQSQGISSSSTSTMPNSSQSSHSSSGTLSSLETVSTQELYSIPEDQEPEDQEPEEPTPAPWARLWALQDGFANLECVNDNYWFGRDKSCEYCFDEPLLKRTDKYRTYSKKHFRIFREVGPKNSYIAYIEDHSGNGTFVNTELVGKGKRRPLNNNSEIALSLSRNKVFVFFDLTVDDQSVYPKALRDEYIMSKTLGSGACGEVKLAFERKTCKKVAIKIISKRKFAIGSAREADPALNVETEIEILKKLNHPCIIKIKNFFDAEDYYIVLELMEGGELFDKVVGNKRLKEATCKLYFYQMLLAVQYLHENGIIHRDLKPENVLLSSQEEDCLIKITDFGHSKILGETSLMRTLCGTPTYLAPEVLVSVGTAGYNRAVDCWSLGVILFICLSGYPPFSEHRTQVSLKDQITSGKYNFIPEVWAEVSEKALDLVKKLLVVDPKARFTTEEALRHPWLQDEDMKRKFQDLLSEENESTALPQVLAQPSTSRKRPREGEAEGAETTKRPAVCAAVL
# [5] = target: Dual specificity protein kinase CLK3 (Homo sapiens) (UniProt P49761); assay: Inhibition of recombinant full length human GST-tagged CLK3 expressed in Baculovirus expression system at 0.1 uM using serine/threonine-18 peptide as substrate incubated for 60 mins by Z'-LYTE assay relative to control
# Dual specificity protein kinase CLK3 (Homo sapiens), sequence (P49761 whole entry, looked up): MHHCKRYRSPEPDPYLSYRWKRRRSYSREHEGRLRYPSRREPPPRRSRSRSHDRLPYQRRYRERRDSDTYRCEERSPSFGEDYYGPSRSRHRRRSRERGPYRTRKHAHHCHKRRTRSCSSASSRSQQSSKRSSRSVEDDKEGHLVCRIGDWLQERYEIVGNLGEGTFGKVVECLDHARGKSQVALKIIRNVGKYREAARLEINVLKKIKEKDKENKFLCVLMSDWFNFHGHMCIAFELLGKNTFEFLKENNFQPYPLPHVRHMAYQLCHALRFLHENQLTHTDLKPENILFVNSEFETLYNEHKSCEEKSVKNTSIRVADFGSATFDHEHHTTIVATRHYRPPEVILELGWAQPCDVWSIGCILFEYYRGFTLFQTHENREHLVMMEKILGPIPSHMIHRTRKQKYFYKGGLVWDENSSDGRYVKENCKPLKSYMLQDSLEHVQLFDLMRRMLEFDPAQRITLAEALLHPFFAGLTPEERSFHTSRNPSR
# [6] = target: DNA-dependent protein kinase catalytic subunit (Homo sapiens) (UniProt P78527); assay: Inhibition of recombinant human DNA-PK expressed in baculovirus expression system at 0.1 uM using serine/threonine-26 peptide as substrate incubated for 60 mins by Z'-LYTE assay relative to control
# [7] = target: Dual specificity tyrosine-phosphorylation-regulated kinase 4 (Homo sapiens) (UniProt Q9NR20); assay: Inhibition of recombinant full length human GST-tagged DYRK4 expressed in baculovirus expression system at 0.1 uM using serine/threonine-9 peptide as substrate incubated for 60 mins by Z'-LYTE assay relative to control
# [8] = target: Ephrin type-A receptor 8 (Homo sapiens) (UniProt P29322); assay: Inhibition of recombinant human GST-tagged EPHA8 catalytic domain (565 to 1005 residues) expressed in baculovirus expression system at 0.1 uM using tyrosine-2 peptide as substrate incubated for 60 mins by Z'-LYTE assay relative to control
# [9] = target: Receptor tyrosine-protein kinase erbB-4 (Homo sapiens) (UniProt Q15303); assay: Inhibition of recombinant human GST-tagged ERBB4 catalytic domain (708 to 993 residues) expressed in baculovirus expression system at 0.1 uM using tyrosine-1 peptide as substrate incubated for 60 mins by Z'-LYTE assay relative to control
# [10] = target: Insulin-like growth factor 1 receptor (Homo sapiens) (UniProt P08069); assay: Inhibition of recombinant human His-tagged IGF1R catalytic domain (960 to 1397 residues) expressed in baculovirus expression system at 0.1 uM using tyrosine-1 peptide as substrate incubated for 60 mins by Z'-LYTE assay relative to control
# [11] = target: Tyrosine-protein kinase JAK3 (Homo sapiens) (UniProt P52333); assay: Inhibition of recombinant human GST-tagged JAK3 catalytic domain (781 to 1124 residues) expressed in baculovirus expression system at 0.1 uM using tyrosine-6 peptide as substrate incubated for 60 mins by Z'-LYTE assay relative to control
# Tyrosine-protein kinase JAK3 (Homo sapiens), sequence (P52333 whole entry, the tested form may be a part): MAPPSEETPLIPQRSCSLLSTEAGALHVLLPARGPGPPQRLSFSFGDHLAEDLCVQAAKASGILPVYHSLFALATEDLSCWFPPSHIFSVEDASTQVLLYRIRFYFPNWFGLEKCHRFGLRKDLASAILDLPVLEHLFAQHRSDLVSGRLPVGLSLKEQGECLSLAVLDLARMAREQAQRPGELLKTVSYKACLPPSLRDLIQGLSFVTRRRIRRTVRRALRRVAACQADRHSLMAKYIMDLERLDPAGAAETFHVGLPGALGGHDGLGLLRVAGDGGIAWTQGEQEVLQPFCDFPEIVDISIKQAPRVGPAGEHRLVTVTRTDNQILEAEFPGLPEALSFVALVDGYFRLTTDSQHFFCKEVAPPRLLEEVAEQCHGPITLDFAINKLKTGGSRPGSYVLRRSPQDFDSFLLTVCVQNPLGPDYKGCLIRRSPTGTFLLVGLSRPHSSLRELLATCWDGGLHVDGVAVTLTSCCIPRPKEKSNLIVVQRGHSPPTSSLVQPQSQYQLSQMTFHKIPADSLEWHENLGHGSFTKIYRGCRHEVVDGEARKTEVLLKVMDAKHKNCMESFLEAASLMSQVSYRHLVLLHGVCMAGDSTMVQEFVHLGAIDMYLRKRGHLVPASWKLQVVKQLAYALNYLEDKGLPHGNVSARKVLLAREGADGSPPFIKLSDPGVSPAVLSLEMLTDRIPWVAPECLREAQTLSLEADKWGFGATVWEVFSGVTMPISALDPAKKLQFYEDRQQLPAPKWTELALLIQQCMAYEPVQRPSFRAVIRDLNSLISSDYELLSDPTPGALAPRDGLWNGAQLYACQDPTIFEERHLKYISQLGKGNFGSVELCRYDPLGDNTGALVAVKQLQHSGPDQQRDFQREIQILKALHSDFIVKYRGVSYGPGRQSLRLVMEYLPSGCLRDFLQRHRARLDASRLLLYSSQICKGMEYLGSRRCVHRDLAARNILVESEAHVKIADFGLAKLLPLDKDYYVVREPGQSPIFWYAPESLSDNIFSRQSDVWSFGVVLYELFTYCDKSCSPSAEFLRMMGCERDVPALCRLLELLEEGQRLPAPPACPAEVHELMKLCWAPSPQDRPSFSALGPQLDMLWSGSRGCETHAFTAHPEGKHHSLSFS
# [12] = target: Tyrosine-protein kinase Lck (Homo sapiens) (UniProt P06239); assay: Inhibition of recombinant full length human His-tagged LCK expressed in baculovirus expression system at 0.1 uM using tyrosine-2 peptide as substrate incubated for 60 mins by Z'-LYTE assay relative to control
# Tyrosine-protein kinase Lck (Homo sapiens), sequence (P06239 2-509 limits assumed): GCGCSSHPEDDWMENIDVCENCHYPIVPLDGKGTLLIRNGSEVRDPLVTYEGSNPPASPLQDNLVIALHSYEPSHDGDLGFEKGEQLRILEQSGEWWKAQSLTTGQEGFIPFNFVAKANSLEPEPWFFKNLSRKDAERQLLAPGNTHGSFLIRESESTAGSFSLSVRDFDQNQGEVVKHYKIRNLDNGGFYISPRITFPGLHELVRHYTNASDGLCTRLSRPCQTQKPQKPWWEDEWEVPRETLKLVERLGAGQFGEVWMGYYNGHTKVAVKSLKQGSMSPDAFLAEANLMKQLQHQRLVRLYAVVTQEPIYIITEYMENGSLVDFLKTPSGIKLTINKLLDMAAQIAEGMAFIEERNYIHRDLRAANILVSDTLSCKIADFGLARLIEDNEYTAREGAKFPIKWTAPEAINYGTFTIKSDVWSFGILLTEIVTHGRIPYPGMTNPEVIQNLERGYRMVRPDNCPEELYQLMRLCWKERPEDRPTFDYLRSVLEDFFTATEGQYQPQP
# [13] = target: Serine/threonine-protein kinase MARK1 (Homo sapiens) (UniProt Q9P0L2); assay: Inhibition of recombinant full length human GST-tagged MARK1 expressed in baculovirus expression system at 0.1 uM using serine/threonine-21 peptide as substrate incubated for 60 mins by Z'-LYTE assay relative to control
# [14] = target: 3-phosphoinositide-dependent protein kinase 1 (Homo sapiens) (UniProt O15530); assay: Inhibition of recombinant human His-tagged PDK1 expressed in baculovirus expression system at 0.1 uM using serine/threonine-7 peptide as substrate incubated for 60 mins by Z'-LYTE assay relative to control
# [15] = target: Protein kinase C beta type (Homo sapiens) (UniProt P05771); assay: Inhibition of recombinant full length human GST-tagged PKCbeta1 expressed in insect expression system at 0.1 uM using serine/threonine-7 peptide as substrate incubated for 60 mins by Z'-LYTE assay relative to control
# Protein kinase C beta type (Homo sapiens), sequence (P05771 2-671 limits assumed): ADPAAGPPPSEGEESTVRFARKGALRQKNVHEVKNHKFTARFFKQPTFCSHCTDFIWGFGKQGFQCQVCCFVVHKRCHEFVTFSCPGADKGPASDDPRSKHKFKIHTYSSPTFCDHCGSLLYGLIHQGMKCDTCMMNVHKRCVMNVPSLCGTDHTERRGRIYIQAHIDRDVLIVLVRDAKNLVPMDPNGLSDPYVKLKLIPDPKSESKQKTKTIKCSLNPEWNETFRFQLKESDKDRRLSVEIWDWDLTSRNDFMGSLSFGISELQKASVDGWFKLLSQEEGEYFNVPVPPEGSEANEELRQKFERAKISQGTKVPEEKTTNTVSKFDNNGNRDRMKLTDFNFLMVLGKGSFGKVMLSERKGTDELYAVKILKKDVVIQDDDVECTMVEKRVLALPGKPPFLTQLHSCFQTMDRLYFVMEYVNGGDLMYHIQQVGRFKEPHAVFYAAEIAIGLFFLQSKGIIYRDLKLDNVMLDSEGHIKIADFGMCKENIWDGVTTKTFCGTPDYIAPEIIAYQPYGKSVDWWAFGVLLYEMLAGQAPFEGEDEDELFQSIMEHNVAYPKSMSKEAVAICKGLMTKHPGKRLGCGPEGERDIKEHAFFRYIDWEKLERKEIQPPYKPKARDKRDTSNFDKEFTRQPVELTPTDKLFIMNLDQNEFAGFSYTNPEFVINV
# [16] = target: Serine/threonine-protein kinase PLK3 (Homo sapiens) (UniProt Q9H4B4); assay: Inhibition of recombinant human GST-tagged PLK3 catalytic domain (58 to 340 residues) expressed in baculovirus expression system at 0.1 uM using serine/threonine-16 peptide as substrate incubated for 60 mins by Z'-LYTE assay relative to control
# Serine/threonine-protein kinase PLK3 (Homo sapiens), sequence (Q9H4B4 whole entry, looked up, the tested form may be a part, canonical isoform): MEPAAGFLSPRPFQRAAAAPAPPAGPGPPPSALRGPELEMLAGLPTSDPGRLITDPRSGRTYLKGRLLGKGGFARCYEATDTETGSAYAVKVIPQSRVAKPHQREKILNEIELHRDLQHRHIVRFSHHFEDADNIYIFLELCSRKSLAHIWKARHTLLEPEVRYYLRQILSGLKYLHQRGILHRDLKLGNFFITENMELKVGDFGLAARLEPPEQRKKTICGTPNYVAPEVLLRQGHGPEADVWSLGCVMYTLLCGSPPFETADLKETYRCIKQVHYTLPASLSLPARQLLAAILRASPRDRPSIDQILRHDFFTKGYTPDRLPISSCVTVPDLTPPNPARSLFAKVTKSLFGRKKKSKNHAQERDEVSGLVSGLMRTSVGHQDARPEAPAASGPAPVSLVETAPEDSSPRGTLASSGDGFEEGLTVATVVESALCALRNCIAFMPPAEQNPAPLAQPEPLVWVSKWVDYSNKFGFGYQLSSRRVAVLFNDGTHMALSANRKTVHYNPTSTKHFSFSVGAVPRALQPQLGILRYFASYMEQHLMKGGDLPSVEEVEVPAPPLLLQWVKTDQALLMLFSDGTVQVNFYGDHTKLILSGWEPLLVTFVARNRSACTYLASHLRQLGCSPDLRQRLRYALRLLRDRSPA
# [17] = target: Phosphorylase b kinase gamma catalytic chain, skeletal muscle/heart isoform (Homo sapiens) (UniProt Q16816); assay: Inhibition of recombinant full length human GST-tagged PHKG1 expressed in baculovirus expression system at 0.1 uM using serine/threonine-7 peptide as substrate incubated for 60 mins by Z'-LYTE assay relative to control
# Phosphorylase b kinase gamma catalytic chain, skeletal muscle/heart isoform (Homo sapiens), sequence (Q16816 whole entry, looked up, the tested form may be a part, canonical isoform): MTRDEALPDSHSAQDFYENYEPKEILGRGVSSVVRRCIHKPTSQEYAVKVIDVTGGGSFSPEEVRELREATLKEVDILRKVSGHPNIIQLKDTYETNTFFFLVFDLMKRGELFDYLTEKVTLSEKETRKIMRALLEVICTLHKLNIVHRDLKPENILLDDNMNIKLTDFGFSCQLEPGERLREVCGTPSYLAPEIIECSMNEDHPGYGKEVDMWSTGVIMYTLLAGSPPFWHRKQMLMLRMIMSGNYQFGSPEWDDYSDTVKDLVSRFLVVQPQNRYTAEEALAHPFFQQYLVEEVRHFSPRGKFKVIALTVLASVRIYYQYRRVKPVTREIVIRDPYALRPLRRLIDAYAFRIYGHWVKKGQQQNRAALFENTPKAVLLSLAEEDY
# [18] = target: Serine/threonine-protein kinase Sgk3 (Homo sapiens) (UniProt Q96BR1); assay: Inhibition of recombinant human GST-tagged SGK3 catalytic domain (87 to 496 residues) expressed in baculovirus expression system at 0.1 uM using serine/threonine-6 peptide as substrate incubated for 60 mins by Z'-LYTE assay relative to control
# [19] = target: Serine/threonine-protein kinase 33 (Homo sapiens) (UniProt Q9BYT3); assay: Inhibition of tracer 236 binding to recombinant full length human His-tagged STK33 expressed in baculovirus expression system at 0.1 uM measured after 60 mins by Lanthascreen assay relative to control
# [20] = target: TAK1/TAB1 (Homo sapiens) (UniProt Q15750+O43318); assay: Inhibition of tracer 222 binding to recombinant human His-tagged TAK1-TAB1 catalytic domain (437 to 504 residues) expressed in baculovirus expression system at 0.1 uM measured after 60 mins by Lanthascreen assay relative to control
# [21] = target: Wee1-like protein kinase (Homo sapiens) (UniProt P30291); assay: Inhibition of tracer 178 binding to recombinant full length human GST-tagged WEE1 expressed in baculovirus expression system at 0.1 uM measured after 60 mins by Lanthascreen assay relative to control
# [22] = target: Serine/threonine-protein kinase 25 (Homo sapiens) (UniProt O00506); assay: Inhibition of recombinant full length human GST-tagged YSK1 expressed in baculovirus expression system at 0.1 uM using serine/threonine-7 peptide as substrate incubated for 60 mins by Z'-LYTE assay relative to control
# [23] = target: Mitogen-activated protein kinase 12 (Homo sapiens) (UniProt P53778); assay: Inhibition of recombinant full length human His-tagged p38gamma expressed in baculovirus expression system at 0.1 uM using serine/threonine-3 peptide as substrate incubated for 60 mins by Z'-LYTE assay relative to control
# Mitogen-activated protein kinase 12 (Homo sapiens), sequence (P53778 whole entry): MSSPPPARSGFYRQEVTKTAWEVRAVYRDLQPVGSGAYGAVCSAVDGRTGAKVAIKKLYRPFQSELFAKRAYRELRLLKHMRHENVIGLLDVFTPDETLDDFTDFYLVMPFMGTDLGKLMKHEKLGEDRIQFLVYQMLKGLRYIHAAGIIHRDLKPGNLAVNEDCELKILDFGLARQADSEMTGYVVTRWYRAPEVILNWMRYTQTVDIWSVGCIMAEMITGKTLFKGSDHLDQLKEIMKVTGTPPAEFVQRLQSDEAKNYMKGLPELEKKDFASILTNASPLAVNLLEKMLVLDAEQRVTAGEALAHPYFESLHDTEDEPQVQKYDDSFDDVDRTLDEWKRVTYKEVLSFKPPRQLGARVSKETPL
Compound,inhibition [1] [%],inhibition [2] [%],inhibition [3] [%],inhibition [4] [%],inhibition [5] [%],inhibition [6] [%],inhibition [7] [%],inhibition [8] [%],inhibition [9] [%],inhibition [10] [%],inhibition [11] [%],inhibition [12] [%],inhibition [13] [%],inhibition [14] [%],inhibition [15] [%],inhibition [16] [%],inhibition [17] [%],inhibition [18] [%],inhibition [19] [%],inhibition [20] [%],other results
CCN1CC2(C1)CN(c1ccc(Nc3ncc(F)c(-c4cnn5c4[C@H](C)CCCC5)n3)nc1)C2,0.5,4,79,22.5,4,6,3,3.5,-6.5,7,61.5,3.5,16.5,8.5,4.5,7.5,64,7,50,87.5,inhibition [21]: 11%; inhibition [22]: 10.5%; inhibition [23]: 16%
CCN1CCN(Cc2ccc(Nc3ncc(F)c(-c4cc(F)c5nc(C)n(C(C)C)c5c4)n3)nc2)CC1 [ABEMACICLIB],-0.3,3,86.5,0.5,6.5,14,5,1,3,14,30,12.5,6,1,38,-3.5,62,12,50.8,57.1,inhibition [21]: 5.5%; inhibition [22]: 15%; inhibition [23]: 5%
